The source made the active and inactive calls.
Key:
Cytochrome P450 3A4 [1] = biological target: T1, Cytochrome P450 3A4 (Homo sapiens, UniProt P08684); settings: Potency
[2] = P. falciparum Dd2 growth inhibitors, dose response, SYBR Green, cherry-picked samples (AID 1159567); type: functional, cell-based
[3] = toxicity to human hepatoma HepG2 cells – cell-based, cherry-picked samples, cytotoxicity control, dose response (AID 1159577); type: functional
[4] = blockers of HIV-1 envelope-mediated cell-cell fusion – cherry-pick, dose response (AID 652057); type: functional, cell-based
Nonstructural protein 1 = Nonstructural protein 1 (Influenza A virus, UniProt Q194T2); type: functional, Influenza A virus (A/California/07/2009(H1N1))
Protein skinhead-1 = biological target: T2, Protein skinhead-1 (Caenorhabditis elegans, UniProt P34707); type: functional
T2 sequence (P34707 whole entry): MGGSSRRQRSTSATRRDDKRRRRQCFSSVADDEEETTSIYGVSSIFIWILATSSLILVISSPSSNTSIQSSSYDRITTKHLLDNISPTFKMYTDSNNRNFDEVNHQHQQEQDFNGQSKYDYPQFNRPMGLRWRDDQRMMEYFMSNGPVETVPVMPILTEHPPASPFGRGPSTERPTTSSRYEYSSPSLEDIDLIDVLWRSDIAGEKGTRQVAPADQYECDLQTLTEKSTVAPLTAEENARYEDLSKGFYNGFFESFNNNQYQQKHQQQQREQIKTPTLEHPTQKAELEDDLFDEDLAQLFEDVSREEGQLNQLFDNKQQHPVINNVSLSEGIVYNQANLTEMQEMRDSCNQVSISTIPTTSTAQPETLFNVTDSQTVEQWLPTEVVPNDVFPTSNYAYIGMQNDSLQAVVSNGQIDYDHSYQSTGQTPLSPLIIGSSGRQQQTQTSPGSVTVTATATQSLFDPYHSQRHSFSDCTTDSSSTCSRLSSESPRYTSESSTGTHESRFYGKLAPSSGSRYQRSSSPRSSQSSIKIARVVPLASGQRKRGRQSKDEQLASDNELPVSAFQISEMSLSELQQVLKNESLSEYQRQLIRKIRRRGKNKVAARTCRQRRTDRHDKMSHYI

[5] = biological target: T3, Apoptotic protease-activating factor 1 (Homo sapiens, UniProt O14727); type: functional
T3 sequence (O14727 whole entry): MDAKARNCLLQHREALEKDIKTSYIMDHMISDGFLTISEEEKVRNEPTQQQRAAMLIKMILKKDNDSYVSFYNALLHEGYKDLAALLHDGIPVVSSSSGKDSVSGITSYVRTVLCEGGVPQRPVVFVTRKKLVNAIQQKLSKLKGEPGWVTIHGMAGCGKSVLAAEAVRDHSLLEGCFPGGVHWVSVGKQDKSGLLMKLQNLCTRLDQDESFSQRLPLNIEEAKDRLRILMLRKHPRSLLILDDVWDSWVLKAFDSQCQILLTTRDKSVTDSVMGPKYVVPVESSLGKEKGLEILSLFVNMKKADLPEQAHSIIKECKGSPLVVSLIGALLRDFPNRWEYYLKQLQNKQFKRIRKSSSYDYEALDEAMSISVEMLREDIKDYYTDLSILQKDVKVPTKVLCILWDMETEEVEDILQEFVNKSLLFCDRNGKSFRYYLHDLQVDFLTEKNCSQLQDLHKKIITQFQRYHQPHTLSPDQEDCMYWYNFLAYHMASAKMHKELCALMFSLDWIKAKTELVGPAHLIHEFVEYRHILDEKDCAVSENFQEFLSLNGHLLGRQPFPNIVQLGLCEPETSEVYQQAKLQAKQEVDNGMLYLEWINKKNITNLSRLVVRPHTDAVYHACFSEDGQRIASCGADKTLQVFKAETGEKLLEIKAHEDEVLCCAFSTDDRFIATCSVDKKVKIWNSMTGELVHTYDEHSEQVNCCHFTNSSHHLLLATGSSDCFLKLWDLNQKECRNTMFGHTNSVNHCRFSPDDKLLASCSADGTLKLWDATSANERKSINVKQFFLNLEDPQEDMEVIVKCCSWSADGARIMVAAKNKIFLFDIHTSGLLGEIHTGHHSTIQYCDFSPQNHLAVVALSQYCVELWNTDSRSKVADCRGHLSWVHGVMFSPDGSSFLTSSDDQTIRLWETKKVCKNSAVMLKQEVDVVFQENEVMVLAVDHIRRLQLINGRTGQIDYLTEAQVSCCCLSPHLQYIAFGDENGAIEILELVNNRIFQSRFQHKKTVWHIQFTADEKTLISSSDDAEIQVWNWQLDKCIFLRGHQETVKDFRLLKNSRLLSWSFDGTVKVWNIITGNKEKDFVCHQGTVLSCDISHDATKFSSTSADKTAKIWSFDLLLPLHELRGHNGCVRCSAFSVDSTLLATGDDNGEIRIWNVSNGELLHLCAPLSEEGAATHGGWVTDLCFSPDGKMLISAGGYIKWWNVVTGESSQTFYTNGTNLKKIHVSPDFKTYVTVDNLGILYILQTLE

H9c2 = test: cells; type: functional, cell-based; settings: Rattus norvegicus, H9c2, Myocardium;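 also: confirmatory concentration-response retest of ultra-high-throughput screening hits for modulation of myocardial damage; cell death induced by hydrogen peroxide oxidative stress; compound pretreatment for 60 min then peroxide exposure for 2 h; potency is for protecting the cells against peroxide damage rather than for killing them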
Cytochrome P450 2D6 = Cytochrome P450 2D6 (Homo sapiens, UniProt P10635);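 also: CYP2D6 member of a cytochrome P450 panel assay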
Cytochrome P450 2C9 = Cytochrome P450 2C9 (Homo sapiens, UniProt P11712)
Cytochrome P450 3A4 [6] = biological target: T1, Cytochrome P450 3A4
Paired box protein Pax-8 = Paired box protein Pax-8 (Homo sapiens, UniProt Q06710); test: PAX8 transcriptional activity inhibition in RMG-I – RMG-I cells, luciferase, cherry-pick, dose response (AID 687027); type: functional, cell-based;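 also: luciferase reporter driven by Pax8 target thyroperoxidase promoter measured by SteadyGlo luminescence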
[7] = biological target: T4, RNA-binding protein pos-1 (Caenorhabditis elegans, UniProt G5EF15); test: disruptors of C. elegans POS-1 RNA interaction – biochemical, fluorescence polarization, dose response (AID 1964);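 also: purified POS-1 fused to maltose binding protein made in E. coli; potency of compounds blocking POS-1 binding to fluorescent RNA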
T4 sequence (G5EF15 whole entry): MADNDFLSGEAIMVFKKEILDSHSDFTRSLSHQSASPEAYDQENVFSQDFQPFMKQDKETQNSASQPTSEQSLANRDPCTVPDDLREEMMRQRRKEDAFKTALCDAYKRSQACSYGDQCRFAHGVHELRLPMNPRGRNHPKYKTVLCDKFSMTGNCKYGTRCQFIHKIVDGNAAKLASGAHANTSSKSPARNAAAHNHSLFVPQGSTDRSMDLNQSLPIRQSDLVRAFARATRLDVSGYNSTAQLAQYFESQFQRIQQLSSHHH

[8] = biological target: T5, Zinc finger protein mex-5 (Caenorhabditis elegans, UniProt Q9XUB2); test: potency of MEX-5 RNA-binding blockers – biochemical, C. elegans, fluorescence polarization, dose response (AID 1960)
T5 sequence (Q9XUB2 whole entry): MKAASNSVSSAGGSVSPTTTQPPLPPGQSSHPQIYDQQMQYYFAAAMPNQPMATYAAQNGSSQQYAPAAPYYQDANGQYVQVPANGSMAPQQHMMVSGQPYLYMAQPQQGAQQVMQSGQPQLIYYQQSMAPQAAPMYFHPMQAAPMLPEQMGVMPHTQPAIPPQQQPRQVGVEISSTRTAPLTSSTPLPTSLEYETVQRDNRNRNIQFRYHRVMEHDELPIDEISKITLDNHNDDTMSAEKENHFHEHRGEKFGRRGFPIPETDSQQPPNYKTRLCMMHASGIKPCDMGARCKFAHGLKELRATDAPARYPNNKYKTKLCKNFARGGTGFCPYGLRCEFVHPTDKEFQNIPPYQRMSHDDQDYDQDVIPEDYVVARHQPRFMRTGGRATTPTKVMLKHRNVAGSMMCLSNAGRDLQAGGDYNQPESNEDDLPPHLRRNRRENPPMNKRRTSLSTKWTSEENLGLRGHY

cells [9] = type: functional, cell-based
cells [10] = type: functional, cell-based; remark: listed apart in the source
Estrogen receptor = biological target: T6, Estrogen receptor (Homo sapiens, UniProt P03372);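 also: potency for inhibiting coactivator peptide recruitment to the receptor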
T6 sequence (P03372 whole entry): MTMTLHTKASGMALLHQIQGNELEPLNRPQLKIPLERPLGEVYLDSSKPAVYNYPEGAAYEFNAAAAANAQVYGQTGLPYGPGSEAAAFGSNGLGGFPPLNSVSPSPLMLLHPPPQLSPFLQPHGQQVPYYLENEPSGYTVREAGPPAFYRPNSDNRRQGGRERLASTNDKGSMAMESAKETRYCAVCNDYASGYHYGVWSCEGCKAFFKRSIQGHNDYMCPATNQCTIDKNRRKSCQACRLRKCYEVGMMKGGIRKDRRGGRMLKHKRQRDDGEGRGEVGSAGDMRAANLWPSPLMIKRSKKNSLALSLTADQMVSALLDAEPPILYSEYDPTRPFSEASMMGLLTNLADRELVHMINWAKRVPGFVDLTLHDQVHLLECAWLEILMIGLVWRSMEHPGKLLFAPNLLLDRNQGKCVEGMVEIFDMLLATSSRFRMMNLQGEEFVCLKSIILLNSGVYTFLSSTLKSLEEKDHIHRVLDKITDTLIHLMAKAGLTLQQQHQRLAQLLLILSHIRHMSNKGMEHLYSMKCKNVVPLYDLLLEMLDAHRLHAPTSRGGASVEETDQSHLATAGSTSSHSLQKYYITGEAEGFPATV

Cytochrome P450 2C9, sequence (P11712 whole entry): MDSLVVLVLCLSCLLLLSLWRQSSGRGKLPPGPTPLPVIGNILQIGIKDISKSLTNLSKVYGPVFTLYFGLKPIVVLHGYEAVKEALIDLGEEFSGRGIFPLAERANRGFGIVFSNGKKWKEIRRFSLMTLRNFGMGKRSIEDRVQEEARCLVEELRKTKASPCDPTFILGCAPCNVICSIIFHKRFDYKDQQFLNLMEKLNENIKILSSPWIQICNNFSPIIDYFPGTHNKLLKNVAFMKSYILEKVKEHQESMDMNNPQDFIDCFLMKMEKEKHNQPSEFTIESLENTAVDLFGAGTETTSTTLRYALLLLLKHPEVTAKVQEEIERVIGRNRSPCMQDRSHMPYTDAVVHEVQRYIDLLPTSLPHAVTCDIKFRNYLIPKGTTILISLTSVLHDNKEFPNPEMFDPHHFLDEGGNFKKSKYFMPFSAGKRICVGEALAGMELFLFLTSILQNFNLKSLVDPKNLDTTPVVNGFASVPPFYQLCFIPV
T1 sequence (P08684 whole entry): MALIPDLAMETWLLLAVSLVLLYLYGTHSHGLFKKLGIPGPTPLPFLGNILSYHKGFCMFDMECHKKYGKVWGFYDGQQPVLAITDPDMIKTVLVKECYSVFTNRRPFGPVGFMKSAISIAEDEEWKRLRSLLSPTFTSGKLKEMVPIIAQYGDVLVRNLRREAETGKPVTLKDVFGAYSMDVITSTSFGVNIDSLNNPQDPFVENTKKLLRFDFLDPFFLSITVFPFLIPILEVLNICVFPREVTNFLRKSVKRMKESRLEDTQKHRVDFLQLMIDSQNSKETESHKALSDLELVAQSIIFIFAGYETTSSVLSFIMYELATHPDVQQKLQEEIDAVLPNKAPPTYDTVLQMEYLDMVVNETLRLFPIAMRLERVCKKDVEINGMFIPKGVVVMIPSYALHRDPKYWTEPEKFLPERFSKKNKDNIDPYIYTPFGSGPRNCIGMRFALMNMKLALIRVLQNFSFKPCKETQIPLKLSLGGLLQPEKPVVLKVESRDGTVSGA
Nonstructural protein 1, sequence (Q194T2 whole entry): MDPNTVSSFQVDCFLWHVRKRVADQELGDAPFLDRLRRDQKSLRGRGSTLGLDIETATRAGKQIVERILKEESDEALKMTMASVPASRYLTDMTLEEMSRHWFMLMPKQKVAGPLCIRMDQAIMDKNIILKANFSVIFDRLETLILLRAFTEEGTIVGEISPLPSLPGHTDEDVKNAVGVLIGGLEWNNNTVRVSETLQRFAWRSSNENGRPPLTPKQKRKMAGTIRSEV
Cytochrome P450 2D6, sequence (P10635 whole entry): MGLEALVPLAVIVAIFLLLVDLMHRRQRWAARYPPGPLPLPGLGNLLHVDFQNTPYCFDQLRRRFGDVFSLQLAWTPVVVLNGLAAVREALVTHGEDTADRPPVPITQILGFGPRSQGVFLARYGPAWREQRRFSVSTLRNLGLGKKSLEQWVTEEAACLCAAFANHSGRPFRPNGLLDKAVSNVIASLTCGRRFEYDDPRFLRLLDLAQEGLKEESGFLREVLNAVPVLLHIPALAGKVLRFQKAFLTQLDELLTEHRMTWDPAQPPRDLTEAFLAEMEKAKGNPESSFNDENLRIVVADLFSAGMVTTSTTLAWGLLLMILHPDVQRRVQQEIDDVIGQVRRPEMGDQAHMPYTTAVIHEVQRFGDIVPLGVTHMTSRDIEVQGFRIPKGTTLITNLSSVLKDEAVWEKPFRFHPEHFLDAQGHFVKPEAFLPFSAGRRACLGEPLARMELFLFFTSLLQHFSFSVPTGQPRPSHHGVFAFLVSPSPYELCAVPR
Paired box protein Pax-8, sequence (Q06710 whole entry, the tested form may be a part): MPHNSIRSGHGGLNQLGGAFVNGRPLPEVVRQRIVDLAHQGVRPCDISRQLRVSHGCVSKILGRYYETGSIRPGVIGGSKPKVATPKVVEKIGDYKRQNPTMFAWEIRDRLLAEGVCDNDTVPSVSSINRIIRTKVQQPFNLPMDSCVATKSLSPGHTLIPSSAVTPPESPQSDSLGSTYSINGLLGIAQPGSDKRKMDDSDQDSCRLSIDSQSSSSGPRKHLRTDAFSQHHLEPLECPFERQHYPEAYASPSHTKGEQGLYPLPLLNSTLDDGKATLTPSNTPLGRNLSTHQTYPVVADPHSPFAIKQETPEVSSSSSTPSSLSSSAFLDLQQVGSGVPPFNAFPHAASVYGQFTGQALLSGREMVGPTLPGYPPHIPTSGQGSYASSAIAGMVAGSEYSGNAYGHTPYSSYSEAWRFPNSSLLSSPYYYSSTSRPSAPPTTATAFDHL

For `N#Cc1ccc(C23CC4(C2)[C@H](CN(P(=O)(c2ccccc2)c2ccccc2)[C@@H]4c2ccccc2)C3c2ccc(Cl)nc2)cc1` (stereo partly specified), the AC50 (Cytochrome P450 3A4 [1]) was 2 µM (inconclusive).

With `Cc1ccccc1-c1ccc([C@@H]2[C@@H]3CN(Cc4cccnc4)C[C@H]2N3)cc1` the AC50 [2] was 1.19 µM (active) and the AC50 [3] was 9.78 µM (active).

In the case of `Cc1ccc(S(=O)(=O)N(C)C[C@H]2Oc3cc(C4=CCCC4)ccc3S(=O)(=O)N([C@H](C)CO)C[C@H]2C)cc1`, the AC50 [4] is reported as 10.1 µM (active).

In the case of `COC(=O)[C@]1(C)C[C@H]1[C@H](NP(=O)(c1ccccc1)c1ccccc1)c1ccccc1`, the AC50 (Cytochrome P450 3A4 [1]) is reported as 12.6 µM (inconclusive).

With `N#Cc1cccc(-c2ccc([C@@H]3[C@@H]4CN(C(=O)Nc5ccc(C(F)(F)F)cc5)C[C@H]3N4)cc2)c1` the AC50 [2] was 4.72 µM (active) and the AC50 [3] was 10.5 µM (active).

For `CC1=NN(c2ccccc2)C(=O)/C1=C\C=C1/N(C)c2ccccc2C1(C)C`, the IC50 (Nonstructural protein 1) was 11.8 µM (active) and the IC50 (Protein skinhead-1) was 21.9 µM (active).

For `C=C(C)Cc1c(C)c(C#N)c2nc3ccccc3n2c1O`, the IC50 [5] was 38.6 µM (active).

With `COc1ccc(C2COc3c(ccc(O)c3OC)C2)c(OC)c1O` (stereo unspecified) the AC50 (Cytochrome P450 3A4 [1]) was 25.1 µM (inconclusive).

With `Cc1ccc(OCC(=O)N/N=C/c2cccc3cccnc23)cc1` the IC50 (Nonstructural protein 1) was 25.6 µM (active) and the IC50 (H9c2) was 14.1 µM (active).

For `CCCCN=C(S)NNC(=O)c1csc2c1CCC(C)C2` (stereo unspecified), the AC50 (Cytochrome P450 2D6) was 22.4 µM (inconclusive), the AC50 (Cytochrome P450 2C9) was “inconclusive” and the AC50 (Cytochrome P450 3A4 [6]) was 15.8 µM (inconclusive).

In the case of `COc1cc(OC)c(C(C)=O)c(O)c1C`, the AC50 (Cytochrome P450 3A4 [1]) is reported as 0.316 µM (inconclusive).

For `C[C@@H]1CN([C@@H](C)CO)C(=O)c2ccccc2-c2ccccc2CO[C@H]1CN(C)Cc1ccccc1C(F)(F)F`, the AC50 [2] was 2.97 µM (active), the AC50 (Paired box protein Pax-8) was 12.3 µM (active) and the AC50 [3] was 7.72 µM (active).

With `CC[C@@H](c1ccccc1)n1c(=O)n2n(c1=O)[C@H]1[C@H](O)[C@H]3O[C@@H]3/C(=N/OC/C=C(\C)CCC=C(C)C)[C@@H]1CC2` the AC50 (Cytochrome P450 2C9) was “inconclusive” and the AC50 (Cytochrome P450 3A4 [6]) was 3.98 µM (inconclusive).

For `c1ccc(-c2cn(C[C@H]3CC[C@@H]([C@@H]4CC[C@H](Cn5cc(-c6ccccn6)nn5)O4)O3)nn2)nc1`, the IC50 (Nonstructural protein 1) was 5.72 µM (active).

For `Cc1ccccc1-c1ccc([C@H]2[C@@H]3CN(Cc4cccnc4)C[C@H]2N3)cc1`, the AC50 [2] was 4.95 µM (active) and the AC50 [3] was 24.4 µM (active).

With `C[C@H]1CN([C@@H](C)CO)C(=O)Cc2cc(NS(=O)(=O)c3ccccc3)ccc2O[C@@H]1CN(C)Cc1ccc(Cl)c(Cl)c1` the AC50 [4] was 37.1 µM (active).

In the case of `C#C[C@]1(OC(C)=O)CCC2C3CCC4=CC(=O)CCC4C3CC[C@]21C` (stereo partly specified), the AC50 (Cytochrome P450 3A4 [1]) is reported as 39.8 µM (inconclusive).

For `COc1ccc(-c2nnc(-c3cc4c(ccc5ccccc54)oc3=O)o2)cc1`, the EC50 [7] was > 300 µM (not active), the EC50 [8] was > 300 µM (inconclusive) and the EC50 (cells [9]) was > 350 µM (not active). The EC50 (cells [10]) was > 350 µM (not active) and the IC50 (Estrogen receptor) was 20 µM (active).

With `CCC1=C2CC[C@H]3C(=O)N(C)C(=O)[C@H]3[C@H]2[C@@]2(C)C(=O)N(CC(=O)OC)C(=O)N2C1=O` the AC50 (Cytochrome P450 3A4 [1]) was 25.1 µM (inconclusive).

With `Cc1cccc(-c2ccc([C@H]3[C@@H](CO)N4CCCCN(S(=O)(=O)c5cccc(C)c5)C[C@H]34)cc2)c1` the AC50 [2] was 1.87 µM (active) and the AC50 [3] was 11.6 µM (active).

For `CO[C@H]1COC(=O)C/C=C\[C@@H](C)COC(=O)[C@H]2CCCN2C(=O)C/C=C\[C@H]1C`, the AC50 (Cytochrome P450 2C9) was “inconclusive”.

— ChEMBL document CHEMBL1201862, “PubChem BioAssay data set” (2004)
